Source: patent publication US20030055106A1, “Therapeutic uses of peroxometallic compounds” (priority 1999, published 2003)

Columns and labels:
[1] = test system: Human prostate adenocarcinoma (PC-3); experiment: Human prostate adenocarcinoma (PC-3) xenograft; format: in vivo, Male Balb/c nude (nu/nu) mice; settings: 5 mg/Kg daily i.p. for 39 days
Description: B) Human prostate adenocarcinoma (PC-3) in the athymic mice: Male Balb/c nude (nu/nu) were purchased at 4-6 weeks of age from Charles Rivers Inc. Mice were housed under pathogen free conditions and maintained on a 12-h light/12-h dark cycle with food and water supplied ad libitum. The hormono-independent PC3 human tumor cells were from the American Tissue Cuture Collection. Cells were grown in DMEM in the presence of 5% foetal bovine serum. Cells were collected at confluence, included in a matrix (1.0×10^6 cells/ml; 30% Matrigel). An equal volume of the tumor cell suspension was injected s.c. in the right flank of each mouse. After 5 days, a palpable tumor of approximately 5×5 mm was detected in the inoculated animals. Mice with palpable tumors were divided into five groups (18 mice/group) for the treatment study. All mice in each treatment group had tumor of similar size at the start of treatment. For administration to mice, bpV(phen) was dissolved and diluted in phosphate buffered saline (PBS) at pH 7.4. A 5 mg/Kg dose of bpV(phen) was administed daily by i.p. for 39 days. Taxol was used as a positive control at the dose of 20 mg/Kg and injected i.p. at every three days. A control group of 10 animals was injected with PBS. The injection volume was kept constant at […]. The mice were weighed three times during the experimental period to assess toxicity of the treatment, and the tumors were measured twice weekly using calipers. Tumor volume was calculated from the two-dimensional caliper measurements using the following formula: tumor volume=length×(width)^2×0.53.
The treatment period was completed after 39 days, when the PBS treated group of mice had large tumors, requiring that the animals be sacrificed according to the Animal Care Procedures. […]
Statistical analysis: Tumor growth curves are presented in terms of treatment group means and SEs. Statistical significance of treatment effect was assessed by repeated measures ANOVA after applying a power transformation to equalize residual variances and linearize the tumor growth curves.

[2] = test system: ZR-75 breast cancer cells; experiment: In vitro collagen-fibrin tumor progression model, ZR-75; format: cell-based, human
Text: FIG. 12: Illustration of the antitumor activity of bpV(phen) in vitro using ZR-75 breast cancer cells. Experiments were done as described for the FIG. 11 except that DMEM medium having a high glucose concentration and without phenol red was used. 10% FBS was used instead of 5% FBS. The media was supplemented with 10^−9 M estradiol (final concentration).
The cells embedded in the collagen gel, grew as a “primary tumor”. Some cells migrated from the primary tumor towards the fibrin gel, forming front edges. […] Their extension and numbers are representative of the invasive potential of the cancer cells.

[3] = test system: air pouch exudates (leukocyte recruitment, pro-inflammatory mediators); experiment: Murine air pouch model, L. major intra-pouch injection; format: in vivo, BALB/c mice
Description: FIG. 6: Neutrophils, eosinophils and MØ recruited in air pouch exudates of bpV(phen)-treated BALB/c mice in response to L. major promastigotes intra-pouch injection. Air pouch exudates were collected from animals injected with endotoxin-free PBS, LPS (20 μg/ml), L. major and bpV(phen) (500 nM i.p., 2 hour)+L. major, 6 hr post-inoculation. Each time point represents the mean±SD (n=4 mice) of 2 experiments similarly performed.
FIG. 7: In vivo Leishmania-induced pro-inflammatory mediator generations in pV-treated mice. (A) Nitrate level determination in air pouch exudates collected 6 hr post-inoculation of endotoxin-free PBS, L. major and bpV(phen) followed by L. major has been performed. Values are the mean±SEM of 2 experiments performed independently. (B) Evaluation of pro-inflammatory cytokines (IL-6 and IL-1β) and chemokines (MCP-1 and MIP-2) secreted in air pouch exudates collected as described above were measured by ELISA as described in more detail below. Values are the mean±SEM of 2 experiments performed independently. […] IL-6, IL-1β, MCP-1 and MIP-2 secretion were respectively 12.8-, 2-, 8- and 6.8-time more secreted in L. major -injected bpV(phen)-treated animals compared to L. major alone. PBS control was equal to background.
With the use of a murine air pouch model, we investigated early inflammatory events that occur following L. major skin injection in bpV(phen)-treated animals (FIG. 6).
In parallel to this experiment, in vivo generation of Leishmania-induced NO and pro-inflammatory mediators in bpV(phen)-treated mice were measured in air pouch exudates (FIG. 7).

murine B10R macrophages = experiment: Chemokine mRNA expression (RNase protection); format: cell-based
Description: FIG. 9: Effect of bpV(phen) on chemokine mRNA expression in murine B10R macrophages. (A) Cells were incubated for 2 h with or without various concentrations of bpV(phen) (1-50 μM). Total RNA was isolated and analyzed by RNase protection. (B) Kinetic expression of chemokine genes in murine BIOR macrophages. Cells were incubated for increasing period of time (1-4 h) with or without bpV(phen) at 10 μM. Following extraction of total RNA, RNase protection assay was performed. Free RNA probe is shown in the far left lane. The fold increase was calculated from the densitometry of the autoradiogam.
Various concentrations of bpv(phen) were added to B10R macrophages for4 h. mRNA expression was measured by RNase protection assays. RANTES, MIP-1a/β MIP-2, IP-10 and MCP-1 chemokine mRNA levels increased in response to bpv(phen) (FIG. 9A). MCP-1, MIP-2, MIP-1β and RANTES were induced by the addition of bpv(phen) in a dose-dependent manner whereas IP-10 and MIP-1a were expressed at markedly lower concentrations (10 μM).
To determine the kinetics of chemokine expression following pV compound treatment, B10R macrophages were incubated with 10 ?M bpV(phen) for increasing time intervals. Total RNA was extracted from macrophages at various time-points and subjected to RNase protection assay. […] Thus, conditions for the induction of chemokine expression in response to bpV(phen) seems to vary with the different chemokines.

[4] = L. major-injected bpV(phen)-treated animals, 6 hr, ELISA
[5] = bpV(phen)-treated + L. major, 6 hr

O.O.O.OO.OO.[K+].[OH-].[V].c1cnc2c(c1)ccc1cccnc12 [bpV(phen), potassium bisperoxo(1,10-phenanthroline)oxovanadate]
deaths [1]: No death
suppression of the final tumor compared with PBS-treated control animals [1]: 59%
body weight gained relative to weight at the initiation of the treatment ([1]; average): 1.7 grams
progression of ZR-75-1 cells (primary and secondary tumors) ([2]; 2 μM): restricted the growth of the primary tumor
progression of ZR-75-1 cells (primary and secondary tumors) ([2]; 5 and 10 μM): there were no secondary tumors and the primary tumor had a lower cell density
NO generation (nitrate level) in air pouch exudates in response to L. major infection ([3]; 6 hr post-inoculation): enhanced generation
IL-1β secretion in air pouch exudates, compared to L. major alone [3, 4]: 2 time
IL-6 secretion in air pouch exudates, compared to L. major alone [3, 4]: 12.8 time
MCP-1 secretion in air pouch exudates, compared to L. major alone [3, 4]: 8 time
MIP-2 secretion in air pouch exudates, compared to L. major alone [3, 4]: 6.8 time
recruitment of cells in air pouch exudates ([3]; bpV(phen) 500 nM i.p., 2 hour + L. major 10^7 parasites/ml, 6 hours post-injection, vs L. major alone): five times greater
recruited leukocytes that were eosinophils [3, 5]: 18%
recruited leukocytes that were macrophages [3, 5]: 12%
recruited leukocytes that were neutrophils [3, 5]: ~70%
most effective dose for the induction of chemokine gene expression (murine B10R macrophages): 10 µM
expression of RANTES mRNA (murine B10R macrophages; 10 μM bpV(phen)): increased in a time-dependent manner over 24 h
time of maximum levels of MIP-1a, MIP-2, IP-10, and MCP-1 chemokines mRNA (murine B10R macrophages; 10 μM bpV(phen)): 4 h
time of optimal expression of MIP-1β mRNA (murine B10R macrophages; 10 μM bpV(phen)): 8 h
RANTES, MIP-1a/β MIP-2, IP-10 and MCP-1 chemokine mRNA levels (murine B10R macrophages; various concentrations (1-50 μM)): increased
